Measured values: ChEMBL document CHEMBL2086352, “Thiazoline peptides and a tris-phenethyl urea from Didemnum molle with anti-HIV activity” (J Nat Prod, 2012)
Active and inactive are the calls of the source. The rule behind the calls is not given here. Starred links: 1 amine or outer side, 2 acyl side, 3 side chain; linkers in the order of their positions; H or OH if unused. Non-standard residues stand in square brackets, D forms with d. Residues, ends and D or L forms follow the SMILES beside them. *: point of attachment. X1 = O=C([C@H]1CSC([C@@H](Cc2ccccc2)N[*:1])=N1)[*:2]; Allyl(1,1-Me2) = C=CC(C)(C)*

What was measured:
[1] = test system: Human immunodeficiency virus; assay: Antiviral activity against HIV infected in 1A2 cells assessed as cytoprotective activity at 78 uM after 96 hrs by MTT assay; format: functional, organism-based
[2] = biological target: Human immunodeficiency virus type 1 integrase (Human immunodeficiency virus 1) (UniProt Q7ZJM1); assay: Inhibition of HIV-1 integrase at 100 ug/ml by colorimetry
Chain of Human immunodeficiency virus type 1 integrase (Human immunodeficiency virus 1) (Q7ZJM1 as listed by the source): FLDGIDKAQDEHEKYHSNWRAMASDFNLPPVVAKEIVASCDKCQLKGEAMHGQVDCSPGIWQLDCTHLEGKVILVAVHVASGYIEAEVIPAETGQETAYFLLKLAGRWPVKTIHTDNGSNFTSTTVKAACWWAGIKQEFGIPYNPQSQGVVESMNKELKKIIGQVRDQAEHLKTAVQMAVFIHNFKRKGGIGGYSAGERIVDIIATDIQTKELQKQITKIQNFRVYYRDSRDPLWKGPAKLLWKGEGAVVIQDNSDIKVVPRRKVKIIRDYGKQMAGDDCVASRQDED

[3] = biological target: Human immunodeficiency virus type 1 integrase (Human immunodeficiency virus 1, UniProt Q7ZJM1); assay: Inhibition of HIV-1 integrase by colorimetry
Chain of Human immunodeficiency virus type 1 integrase (Q7ZJM1 whole entry): as the sequence (Q7ZJM1 as listed by the source) above

[4] = test system: Human immunodeficiency virus; assay: Antiviral activity against HIV infected in 1A2 cells assessed as cytoprotective activity after 96 hrs by MTT assay; format: functional, organism-based; conditions: Human immunodeficiency virus 1, 1A2, 96 h

SMILES: C=CC(C)(C)O[C@H](C)[C@@H]1NC(=O)[C@H]2CSC(=N2)[C@@H](Cc2ccccc2)NC(=O)[C@@H]2CCCN2C(=O)[C@H](CO)NC(=O)[C@H](CC(C)C)NC1=O (cyclo(LSP[X1]T(Allyl(1,1-Me2))))
- Activity [1]: inactive
- inhibition [2]: inactive

SMILES: CC[C@H](C)[C@@H]1NC(=O)[C@H]2CSC(=N2)[C@@H](Cc2ccccc2)NC(=O)[C@@H]2CCCN2C(=O)[C@@H]2CCCN2C(=O)[C@H](C(C)C)NC1=O [MOLLAMIDE F] (cyclo(IVPP[X1]))
- IC50 [3]: 39 µM
- IC50 [4]: 78 µM

SMILES: O=C(NCCc1ccccc1)NCCc1ccccc1C(=O)NCCc1ccccc1 [MOLLEUREA A]
- IC50 [4]: 60 µM
- inhibition [2]: inactive

SMILES: [N-]=[N+]=[N-] [SODIUM AZIDE]
- IC50 [3]: 46000 µM
